Earlier results as cited in patent US11134689B2, “Natural volatile plant oils to repel arthropods” (Shepard Farms, LLC, priority 2011, dated 2021).

Tested on: fruit fly (Ceratitis capitata)
Conditions: in vivo

## CC12CCC(CC1)C(C)(C)O2 [1,8-cineole]
  insecticidal activity: high insecticidal activity
